The target of the assay is T1, Serine/threonine-protein kinase Chk1 (Homo sapiens, UniProt O14757).
T1 sequence (O14757 whole entry): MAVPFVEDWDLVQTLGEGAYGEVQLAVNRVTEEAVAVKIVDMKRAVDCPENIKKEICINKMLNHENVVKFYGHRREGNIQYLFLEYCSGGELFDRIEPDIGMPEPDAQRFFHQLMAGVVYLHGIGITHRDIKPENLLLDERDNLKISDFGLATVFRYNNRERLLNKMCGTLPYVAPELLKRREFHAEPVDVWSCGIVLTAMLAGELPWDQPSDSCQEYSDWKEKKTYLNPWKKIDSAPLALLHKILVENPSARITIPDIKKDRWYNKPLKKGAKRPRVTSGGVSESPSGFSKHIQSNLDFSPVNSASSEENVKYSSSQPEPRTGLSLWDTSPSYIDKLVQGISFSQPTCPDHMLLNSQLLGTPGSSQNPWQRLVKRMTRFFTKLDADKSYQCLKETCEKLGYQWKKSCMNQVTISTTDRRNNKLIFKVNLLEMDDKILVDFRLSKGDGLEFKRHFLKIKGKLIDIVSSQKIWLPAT
In words: Inhibition of Chk1 (unknown origin).

Regarding `O=C1NC(=O)c2c1c1[nH]cnc1c1[nH]c3ccccc3c21` [GRANULATIMIDE], the IC50 is 0.25 µM.
